In the experiment the target is T1, human prostatic 5α-reductase (Homo sapiens, UniProt P31213).
T1 construct: from homogenates of human benign prostatic hypertrophyc tissue as the enzyme source; from tissue; host or cells: human benign prostatic hypertrophic tissue, particulate fraction (nuclei, microsomes and mitochondria)
T1 sequence (P31213 1-254): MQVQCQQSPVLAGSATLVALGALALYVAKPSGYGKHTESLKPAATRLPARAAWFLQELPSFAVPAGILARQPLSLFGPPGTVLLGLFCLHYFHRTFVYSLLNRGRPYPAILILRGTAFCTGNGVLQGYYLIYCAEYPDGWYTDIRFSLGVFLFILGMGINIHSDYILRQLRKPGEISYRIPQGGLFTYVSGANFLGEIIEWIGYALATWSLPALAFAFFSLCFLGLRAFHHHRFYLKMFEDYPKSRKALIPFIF
In words: Inhibition of 5α-reductase in vitro, particulate fraction of human benign prostatic hypertrophic tissue homogenate. The experiment is classed as biochemical. The note with it: 1 μM [4-14C]testosterone, 5 mM NADPH, pH 5.5, 30 min at 37° C., read-out: concentration producing 50% inhibition on human prostatic 5α-reductase (IC50). How it is done: For example, the inhibitory effect of the compounds of the invention on 5α-reductase was determined in vitro, according to the test procedure reported herebelow.
Inhibition of 5α-reductase was evaluated using the particulate fraction (containing nuclei, microsomes and mitochondria) from homogenates of human benign prostatic hypertrophyc tissue as the enzyme source.
The particulate fraction was prepared centrifuging prostate homogenate at 140,000 × g.
The resulting pellet, washed several times, was resuspended in buffer and stored at -80° C. in aliquots containing 10 mg protein/ml.
The assay for 5α-reductase was done in a final volume of 0.5 ml, containing 1 mM dithiothreitol, 40 mM TRIS-HCl buffer pH 5.5, 5 mM NADPH, 1 μM [4-^14 C]testosterone, 0.3 mg protein of the prostate particulate fraction and various concentrations of the inhibitors. […] Radioactivity on the plate was scanned and analyzed from quantitative plots printed by a TLC-analizer (Berthold). The fractional 5α-reduction of testosterone was calculated by relating the ^14 C-radioactivity in the 5α-reduced metabolites 5α-dihydrotestosterone, 3α- and 3β-androstanediols) regions to the total radioactivity in the testosterone and 5α-reduced metabolites regions. […]

`CC(C)NC(=O)N(C(=O)[C@H]1CC[C@H]2[C@@H]3CC=C4C=C(C(=O)O)CC[C@]4(C)[C@H]3CC[C@]12C)C(C)C` [17β-[N-isopropyl-N-(N-isopropylcarbamoyl)carbamoyl]androsta-3,5-diene-3-carboxylic acid]: the IC50 was 3 nM.

(Values after patent US5212166A, “Unsaturated 17β-subsituted 3-carboxy steroids” (Farmitalia Carlo Erba S.r.l., priority 1991, dated 1993).)
